“Also recorded” adds a separate entry of the source.
Key:
B16/F1 cells = assay: Uptake and metabolic conversion of 3H-SPN and 14C-TMS in B16/F1 cells; type: in vitro ADME, mouse; details: for Incorporation into B16/F1 cells: 3H-labeled SPN, 14C-labeled TMS; for Metabolic conversion: B16/F1 cells
From the text: FIGS. 12A and 12B depict the time-course uptake of ^3 H-SPN (FIG. 12A) and ^14 C-TMS (FIG. 12B) by B16/F1 cells. The ordinate represents % radioactivity taken up by B16/F1 cells and the abscissa represents time in hours.
FIGS. 13A-13C depict the time-course changes in labeling of various SPN derivatives after addition of ^3 H-SPN to B16/F1 cells:
FIG. 13A: thin-layer chromatography (TLC) of lipids separated from Folch's lower phase;
FIG. 13B: TLC of lipids separated from Folch's upper phase followed by incubation with ^14 C-TMS and extraction;
FIG. 13C: TLC of lipids separated from Folch's upper phase.
Lane 1, 0 minute. Lane 2, 10 minutes. Lane 3, 30 minutes. Lane 4, 1 hour. Lane 5, 2 hours. Lane 6, 4 hours. Lane 7, 20 hours. CER represents ceramide; CMH represents ceramide monohexoside; PE represents phosphatidyl-ethanolamine; SM represents sphingomyelin; TMS represents N,N,N-trimethylsphingosine; SPN represents sphingosine; SPN-1-P represents sphingosine-1-phosphate; and ORG represents the origin.
In addition, the uptake and metabolic conversion of SPN vs. TMS was investigated. […] Rapid conversion of SPN into sphingosine-1-phosphate is clearly indicated by the appearance of bands corresponding to SPN-1-P prior to conversion into Cer. The SPN-1-P peak appeared after 10 minutes incubation, whereas the Cer peak appeared after 1 hour incubation.

B16/F10 melanoma cells = assay: Phagokinetic activity of B16/F10 melanoma cells on gold sol-coated plates; type: cell-based, mouse; details: for Cleared area: mean ± S.D., n > 50; for Area cleared by B16/F10 tumor cells: SPN-1-P at 1.0 or 0.1 μM
Experimental: Phagokinetic activity is measured by the ability of cells to ingest foreign particles while moving. […] A uniform coating of gold particles is prepared on glass coverslips precoated with bovine serum albumin, and coverslips are rinsed repeatedly to remove non-adhering or loosely-adhering gold particles. Freshly-prepared neutrophils or tumor cells detached from culture are placed in a Petri dish containing the gold sol-coated plate, and incubated for about 2 hours (for human neutrophils) or about 18 hours (for tumor cells). The coverslips are fixed for 1 hour in a 4% formaldehyde solution in phosphate-buffered saline (PBS) and mounted on microscope slides. The phagokinetic tracks are observed on a television connected to a light microscope (Nikon, Tokyo, Japan). Tracks on the television are transferred to translucent sheets, which are then photocopied. Phagokinetic activity is quantitated by cutting and weighing the swept area in the copy.
A uniform coating of gold particles was prepared on glass coverslips precoated with bovine serum albumin, and the coverslips were rinsed repeatedly to remove non-adhering or loosely-adhering gold particles. Freshly-prepared neutrophils or tumor cells detached from culture were placed in a Petri dish containing the gold sol-coated plate, and incubated for 2 hours (for human neutrophils) or 18 hours (for tumor cells). The coverslips were fixed for 1 hour in 4% formaldehyde solution in phosphate-buffered saline (PBS) and mounted on microscope slides. The phagokinetic tracks were observed on a television connected to a light microscope (Nikon, Tokyo, Japan). Tracks on the television were transferred to translucent sheets, which were then photocopied. Phagokinetic activity was quantitated by cutting and weighing the swept area in the copy.

[1] = tested on: PKC of B16/F1 melanoma cells; assay: PKC activity of B16/F1 melanoma cells (32P incorporation into histone IIIS); type: biochemical, mouse; details: for Inhibitory effect on PKC activity: B16/F1 cells; for % PKC activity: control = 100%, mean ± S.E., n = 3; for PKC inhibition: concentration not given
Experimental: (§1) Effects of SPN derivatives on protein kinase C activity and cell growth of B16/F1 cells was also investigated. […] Toxicity of these compounds to B16/F1 cells and human neutrophils was also examined using a trypan blue exclusion assay after 1 hour incubation with the compounds.
*Mean ± S.E. (n = 3). For controls (defined as 100%), PKC activity was
33225 cpm per tube per 20 min, as measured by ^32 P incorporation int

[2] = Toxicity to B16/F1 melanoma cells, trypan blue exclusion; type: cell-based, mouse; details: mouse, b16/f1 cells; B16/F1; 50 μM; 1 hour incubation; control 99; read-out: Cell viability (%)
Experimental: as §1

B16/F1 melanoma cells = assay: as above; type: cell-based, mouse; details: for Toxicity: 45-50 μM, B16/F1 cells, 1 hour
Experimental: as §1

[3] = Toxicity to human neutrophils, trypan blue exclusion; type: cell-based; details: human, neutrophils; neutrophil; 45 μM; 1 hour incubation; control 99; read-out: Cell viability (%)
Experimental: as §1

human neutrophils = assay: as above; type: cell-based; details: 45-50 μM; human neutrophils; 1 hour
Experimental: as §1

[4] = Mus musculus, B16-F10, 1.0 μM, 18 hours, read-out: % of control (CM+) value
[5] = 3H-SPN, in the presence of D-PDMP

| SMILES | Incorporation into B16/F1 cells (B16/F1 cells) | Metabolic conversion (B16/F1 cells) | Cleared area less control (CM-) value (B16/F10 melanoma cells; 1.0 μM, 18 hours) | Cleared area (B16/F10 melanoma cells; 1.0 μM, 18 hours) | activity at 1 µM (B16/F10 melanoma cells; [4]) [%] | Area cleared by B16/F10 tumor cells (B16/F10 melanoma cells) | Inhibitory effect on PKC activity ([1]; 75 μM) | % PKC activity ([1]; 75 μM) [%] | PKC inhibition [1] | viability at 1 h, 50 µM [2] [%] | Toxicity (B16/F1 melanoma cells) | viability at 1 h, 45 µM [3] [%] | Toxicity (human neutrophils) | further results |
| --- | --- | --- | --- | --- | --- | --- | --- | --- | --- | --- | --- | --- | --- | --- |
| CCCCCCCCCCCCC/C=C/[C@@H](O)[C@H](CO)[N+](C)(C)C [TMS, N,N,N-trimethylsphingosine] | rapidly incorporated | unchanged regardless of incubation time; also recorded: cannot be phosphorylated | 3.5 × 10^3 μm^2 | 5.6 ± 2.7 × 10^3 μm^2 | 73 | reduced the area cleared by tumor cells | strong inhibitory effect | 16 ± 3 | in striking contrast to DMS and TMS, SPN-1-P does not inhibit PKC |  |  |  |  |  |
| CCCCCCCCCCCCC/C=C/[C@@H](O)[C@@H](N)COP(=O)(O)O [SPN-1-P, sphingosine-1-phosphate] |  |  | 0.3 × 10^3 μm^2 | 2.4 ± 1.1 × 10^3 μm^2 | 6 | greatly reduced | no inhibitory effect | 108 ± 32 | does not inhibit PKC | 72 | weak toxicity | 98 | weak toxicity | Cleared area less control (CM-) value (B16/F10 melanoma cells; 0.0001 μM, 18 hours): 3.9 × 10^3 μm^2; Cleared area (B16/F10 melanoma cells; 0.0001 μM, 18 hours): 6.0 ± 2.7 × 10^3 μm^2; Cleared area less control (CM-) value (B16/F10 melanoma cells; 0.01 μM, 18 hours): 2.0 × 10^3 μm^2; Cleared area (B16/F10 melanoma cells; 0.01 μM, 18 hours): 4.1 ± 1.4 × 10^3 μm^2; Cleared area less control (CM-) value (B16/F10 melanoma cells; 0.1 μM, 18 hours): 1.3 × 10^3 μm^2; Cleared area (B16/F10 melanoma cells; 0.1 μM, 18 hours): 3.4 ± 1.3 × 10^3 μm^2; activity at 0.0001 µM (B16/F10 melanoma cells; Mus musculus, B16-F10, 0.0001 μM, 18 hours, read-out: % of control (CM+) value): 81%; activity at 0.01 µM (B16/F10 melanoma cells; Mus musculus, B16-F10, 0.01 μM, 18 hours, read-out: % of control (CM+) value): 42%; activity at 0.1 µM (B16/F10 melanoma cells; Mus musculus, B16-F10, 0.1 μM, 18 hours, read-out: % of control (CM+) value): 27%; Cytotoxicity, comparison (B16/F1 melanoma cells; concentration not given): far less cytotoxic than SPN, DMS, or TMS; % PKC activity ([1]; 10 μM): 121 ± 10% |
| CCCCCCCCCCCCC/C=C/[C@@H](O)[C@@H](N)CO [SPN, sphingosine] | rapidly incorporated | rapidly converted into SPN-1-P and ceramide; also recorded: can be converted to SPN-1-P | 0.4 × 10^3 μm^2 | 2.5 ± 1.0 × 10^3 μm^2 | 8 | reduced the area cleared by tumor cells | strong inhibitory effect | 34 ± 7 |  | 21 | very toxic | 5 | very toxic | Appearance of Cer peak after incubation with SPN (B16/F1 cells; [5]): 1 h; Appearance of SPN-1-P peak after incubation with SPN (B16/F1 cells; [5]): 10 min |

From US5391800A, “Method for inhibition of cell motility by sphingosine-1-phosphate, its derivatives and mimetics and method of synthesizing sphingosine-1-phosphate and its derivatives” (The Biomembrane Institute, priority 1993, dated 1995)
